Consider 7 molecules from PMC10136361 (Biomolecules, 2023).

Assay [1] concerns the target T1, MmGSTP1-1 (Mus musculus, UniProt P19157).
T1 construct: gene Gstp1; recombinant MmGSTP1-1 (GenBank BC061109.1), expressed in E. coli
Put plainly: steady-state kinetics (Km). It is filed as biochemical.

Assay [2] deals with T1, MmGSTP1-1. The assay can be described thus: X-ray co-crystal structure, […] Å. Type of assay: binding.
Assay [3] concerns the target T1, MmGSTP1-1. Put plainly: CDNB-GSH enzyme assay, single concentration […]. It is filed as biochemical. The note with it: read-out: % inhibition at 25 μM.
Assay [4] concerns the target T1, MmGSTP1-1. Put plainly: CDNB-GSH enzyme assay at […] nm, inhibition kinetics (KiE, GSH varied); IC50 […]. It is filed as biochemical.

T1 sequence (P19157 2-210): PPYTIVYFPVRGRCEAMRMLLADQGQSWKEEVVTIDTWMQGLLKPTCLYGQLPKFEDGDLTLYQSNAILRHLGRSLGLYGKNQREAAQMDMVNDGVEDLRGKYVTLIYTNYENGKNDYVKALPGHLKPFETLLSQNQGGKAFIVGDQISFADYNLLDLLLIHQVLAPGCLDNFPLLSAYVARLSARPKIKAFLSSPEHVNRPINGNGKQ

Broadly, the Km is the concentration of substrate that gives half-maximal velocity. With `O=[N+]([O-])c1ccc(Cl)c([N+](=O)[O-])c1` [1-chloro-2,4-dinitrobenzene], the Km at MmGSTP1-1 [1] was determined as 800 ± 40 µM.

As for `N[C@@H](CCC(=O)N[C@@H](CSCc1ccc([N+](=O)[O-])cc1)C(=O)NCC(=O)O)C(=O)O` [S-(p-nitrobenzyl)glutathione], the “X-ray co-crystal structure, 1.28 Å” value at MmGSTP1-1 [2] is listed as “A molecule of Nb-GSH was found bound in the active site of each molecule of the dimer”.

As usually defined, the inhibition is how much of the control response was suppressed. On to `CC1(C)[C@H](C(=O)O[C@H](C#N)c2cccc(Oc3ccccc3)c2)[C@@H]1C=C(Br)Br` [deltamethrin], for which the inhibition at 25 µM at MmGSTP1-1 [3] was found to be 82%.

Consider `CSC1=N[C@@](C)(c2ccccc2)C(=O)N1Nc1ccccc1` [fenamidone], for which the inhibition at 25 µM at MmGSTP1-1 [3] stood at 53%.

Broadly, the Ki is a measure of affinity in units of concentration, obtained from inhibition or displacement. The low end stands for a stronger hold on the target, the high end for a looser hold on the target. At MmGSTP1-1 [4], `CC(C)NC(=O)N1CC(=O)N(c2cc(Cl)cc(Cl)c2)C1=O` [iprodione, 3-(3,5-dichlorophenyl)-2,4-dioxo-N-propan-2-ylimidazolidine-1-carboxamide] came in with a Ki of 5.2 ± 0.1 µM.

For `Cc1cc(C)c(C2=C(OC(=O)CC(C)(C)C)C3(CCCC3)OC2=O)c(C)c1` [spiromesifen], on MmGSTP1-1 [3], the inhibition at 25 µM is 70%.

With `O=S1OC[C@@H]2[C@H](CO1)[C@@]1(Cl)C(Cl)=C(Cl)[C@]2(Cl)C1(Cl)Cl` (stereo partly drawn) [α-endosulfan], the inhibition at 25 µM at MmGSTP1-1 [3] is 58%.
